From patent US4772602A, “N-substituted 3,4-dihydropyrimidine derivatives as agents for treating disorders of cardiovascular system” (Suntory Limited, priority 1985, dated 1988)

Columns and labels:
[1] = system: vertebral artery; experiment: vascular resistance of the vertebral artery in anesthetized dogs (ED30); type: in vivo, dog; details: Canis lupus familiaris, intravenous injection
Protocol: The pharmacological effect (ED30) of the compounds of the present invention with respect to the vascular resistance of the vertebral artery in anesthetized dogs was treated by the following procedure.
Adult dogs of either sex (7-14 kg in body weight) were anesthetized with at first thiopental sodium (35 mg/kg, intraperitoneal), anesthetized with urethane (400 mg/kg, intravenous) and chloralose (60 mg/kg, intravenous) and kept under artificial respiration throughout the experiment. After thoracotomy at the left first intercostal space, the vertebral artery was exposed and blood flow was measured with intracorporeal flow probe connected to an electromagnetic flowmeter (MF-27, Nihon Kohden).
At the same time, continuous measurement of the following parameters was made: systemic blood pressure (mean pressure) at the right femoral artery, the limb lead II ECG, the heart rate with a tachometer triggered by the R wave of ECG, and the vascular resistance determined by loading a electronic divider unit (EO-601 G, Nihon Kohden) with the mean values of blood pressure and vertebral artery blood flow. All of these parameters were recorded simultaneously on a polygraph (RM-600, Nihon Kohden).
All the test compounds were injected through a cannula inserted into the femoral vein.
The ED30 (μg/kg) values obtained by intravenous injection are listed in Table 4, wherein the Compound Numbers are keyed to the Example Numbers.

[2] = system: vertebral artery; experiment: time course of reduction of the resistance of the vertebral artery in anesthetized dogs (T1/2); type: in vivo, dog; details: ED30 doses injected
Protocol: Selected compounds of the present invention were tested for their ability to reduce the resistance of the vertebral artery in anesthetized dogs.
The animals were injected with the ED30 doses of test compounds and the time course of changes in the vasucular resistance were studied as shown schematically in FIG. 1. From the curve shown in FIG. 1, the values of T1/2 (min) (the time to reach 50% of the resistance drop). The results are shown in Table 5, in which the compound numbers correspond to the Example numbers.

SMILES	ED30 [1] [µg/kg]	T1/2 (the time to reach 50% of the resistance drop) [2] [min]
CCOC(=O)C1=C(C)N=C(C)N(C(=O)OCCN(CCCc2ccccc2)Cc2ccccc2)C1c1ccccc1[N+](=O)[O-] (stereo not drawn) [Compound 40]	1.5	–
CC1=NC(C)=C(C(=O)OC(C)C)C(c2ccccc2[N+](=O)[O-])N1C(=O)OCCN(Cc1ccccc1)Cc1ccc2ccccc2c1 (stereo not drawn) [Compound 45]	1.8	15.6
CCCOC(=O)C1=C(C)N=C(C)N(C(=O)OCCN(Cc2ccccc2)Cc2ccccc2)C1c1ccccc1[N+](=O)[O-] (stereo not drawn) [Compound 46]	2	–
CCCCOC(=O)C1=C(C)N=C(C)N(C(=O)OCCN(Cc2ccccc2)Cc2ccccc2)C1c1ccccc1[N+](=O)[O-] (stereo not drawn) [Compound 47]	–	13.0
COC(=O)C1=C(C)N=C(C)N(C(=O)OCCN(Cc2ccccc2)Cc2ccccc2)C1c1ccccc1[N+](=O)[O-] (stereo not drawn) [Compound 48]	2	–
CC1=NC(C)=C(C(=O)OC(C)C)C(c2ccccc2[N+](=O)[O-])N1C(=O)OCCN(Cc1ccccc1)Cc1ccccc1 (stereo not drawn) [Compound 49]	2.8	–
CC1=NC(C)=C(C(=O)OC(C)C)C(c2ccccc2[N+](=O)[O-])N1C(=O)OCCN(Cc1ccccc1)c1ccccc1 (stereo not drawn) [Compound 50]	0.74	–
CC1=NC(C)=C(C(=O)OCC2CC2)C(c2ccccc2[N+](=O)[O-])N1C(=O)OCCN(Cc1ccccc1)Cc1ccccc1 (stereo not drawn) [Compound 52]	1.5	8.0
CC1=NC(C)=C(C(=O)OC(C)C)C(c2ccccc2[N+](=O)[O-])N1C(=O)OCCN(CCCc1ccccc1)c1ccccc1 (stereo not drawn) [Compound 53]	2.5	7.7
CC1=NC(C)=C(C(=O)OC(C)C)C(c2ccccc2[N+](=O)[O-])N1C(=O)OCCN(CCc1ccccc1)c1ccccc1 (stereo not drawn) [Compound 54]	1.4	–
CC1=NC(C)=C(C(=O)OCC(C)C)C(c2ccccc2[N+](=O)[O-])N1C(=O)OCCN(Cc1ccccc1)Cc1ccccc1 (stereo not drawn) [Compound 55]	3.8	9.2
COC(=O)C1=C(C)N=C(C)N(C(=O)OCCN(CCCc2ccccc2)Cc2ccccc2)C1c1ccccc1[N+](=O)[O-] (stereo not drawn) [Compound 57]	0.48	–
CC1=NC(C)=C(C(=O)OC(C)C)C(c2ccccc2[N+](=O)[O-])N1C(=O)OCCN(Cc1ccccn1)c1ccccc1 (stereo not drawn) [Compound 58]	2.5	–
CC1=NC(C)=C(C(=O)OCC(C)C)C(c2ccccc2[N+](=O)[O-])N1C(=O)OCCN(Cc1ccccc1)c1ccccc1 (stereo not drawn) [Compound 60]	1.7	–
CCOC(=O)C1=C(C)N=C(C)N(C(=O)OCCN(Cc2ccccc2)Cc2ccccc2)C1c1ccccc1[N+](=O)[O-] (stereo not drawn) [Compound 61]	1.4	–
CC1=NC(C)=C(C(=O)OC(C)C)C(c2ccccc2[N+](=O)[O-])N1C(=O)OCCN(CCc1ccccc1)Cc1ccccc1 (stereo not drawn) [Compound 62]	1.2	–
CC1=NC(C)=C(C(=O)OCC2CC2)C(c2ccccc2[N+](=O)[O-])N1C(=O)OCCc1cccs1 (stereo not drawn) [Compound 63]	1.3	–
CC1=NC(C)=C(C(=O)OCC2CC2)C(c2ccccc2[N+](=O)[O-])N1C(=O)OCCSc1nc2ccccc2s1 (stereo not drawn) [Compound 64]	0.93	–
CC1=NC(C)=C(C(=O)OC(C)C)C(c2ccccc2[N+](=O)[O-])N1C(=O)OCCN(CCCc1ccccc1)CCCc1ccccc1 (stereo not drawn) [Compound 66]	–	11.9
CC1=NC(C)=C(C(=O)OC(C)C)C(c2ccccc2[N+](=O)[O-])N1C(=O)OCCN(Cc1ccccc1)Cc1cccs1 (stereo not drawn) [Compound 67]	1	–
CC1=NC(C)=C(C(=O)OC(C)C)C(c2ccccc2[N+](=O)[O-])N1C(=O)OCCN(Cc1ccccc1)Cc1ccccn1 (stereo not drawn) [Compound 68]	4.4	–
CC1=NC(C)=C(C(=O)OC(C)C)C(c2cccc([N+](=O)[O-])c2)N1C(=O)OCCN(Cc1ccccc1)c1ccccc1 (stereo not drawn) [Compound 70]	3	–
COC(=O)C1=C(C)N=C(C)N(C(=O)OCCN(Cc2ccccc2)c2ccccc2)C1c1ccccc1[N+](=O)[O-] (stereo not drawn) [Compound 71]	5	–
